Assay results: the NIST ThermoML archive (doi:10.1016/j.fluid.2016.10.026)

Settings: for mass density / kinematic viscosity / speed of sound / vapor or sublimation pressure: Liquid; for mass density: Vibrating tube method; for surface tension liquid-gas: Drop volume; for kinematic viscosity: Capillary tube (Ostwald / Ubbelohde) method; for speed of sound: Frequency=3 MHz, Sing-around technique in a fixed-path interferometer; for vapor or sublimation pressure: Ebulliometric method (Recirculating still)

CC(=O)c1cccs1 [2-acetylthiophene]
Settings	kinematic viscosity [m2/s]	mass density [kg/m3]	speed of sound [m/s]
313.15 K, 25000 kPa	–	1167.08	–
313.15 K, 30000 kPa	–	1169.85	–
313.15 K, 35000 kPa	–	1172.56	–
313.15 K, 40000 kPa	–	1175.19	–
313.15 K, 45000 kPa	–	1177.74	–
313.15 K, 50000 kPa	–	1180.24	–
313.15 K, 55000 kPa	–	1182.67	–
313.15 K, 60000 kPa	–	1185.04	–
313.15 K, 65000 kPa	–	1187.36	–
315.65 K, 101 kPa	1.58e-06	1149.57	1409
318.15 K, 100 kPa	–	1147.15	–
318.15 K, 101 kPa	1.51e-06	1147.18	1400.3
318.15 K, 2000 kPa	–	1148.56	–
318.15 K, 5000 kPa	–	1150.49	–
318.15 K, 7000 kPa	–	1151.77	–
318.15 K, 10000 kPa	–	1153.65	–
318.15 K, 15000 kPa	–	1156.74	–
318.15 K, 20000 kPa	–	1159.72	–
318.15 K, 25000 kPa	–	1162.64	–
318.15 K, 30000 kPa	–	1165.47	–
318.15 K, 35000 kPa	–	1168.21	–
318.15 K, 40000 kPa	–	1170.9	–
318.15 K, 45000 kPa	–	1173.5	–
318.15 K, 50000 kPa	–	1176.04	–
318.15 K, 55000 kPa	–	1178.53	–
318.15 K, 60000 kPa	–	1180.93	–
318.15 K, 65000 kPa	–	1183.29	–
320.65 K, 101 kPa	1.45e-06	1144.79	1391.8
323.15 K, 100 kPa	–	1142.34	–
323.15 K, 101 kPa	1.39e-06	1142.39	1383.4
323.15 K, 2000 kPa	–	1143.79	–
323.15 K, 5000 kPa	–	1145.78	–
323.15 K, 7000 kPa	–	1147.09	–
323.15 K, 10000 kPa	–	1149.02	–
323.15 K, 15000 kPa	–	1152.17	–
323.15 K, 20000 kPa	–	1155.23	–
323.15 K, 25000 kPa	–	1158.22	–
323.15 K, 30000 kPa	–	1161.08	–
323.15 K, 35000 kPa	–	1163.89	–
323.15 K, 40000 kPa	–	1166.63	–
323.15 K, 45000 kPa	–	1169.28	–
323.15 K, 50000 kPa	–	1171.88	–
323.15 K, 55000 kPa	–	1174.4	–
323.15 K, 60000 kPa	–	1176.86	–
323.15 K, 65000 kPa	–	1179.25	–
325.65 K, 101 kPa	1.34e-06	1140	1375
328.15 K, 100 kPa	–	1137.56	–
328.15 K, 101 kPa	1.29e-06	1137.61	1366.5
328.15 K, 2000 kPa	–	1139.02	–
328.15 K, 5000 kPa	–	1141.06	–
328.15 K, 7000 kPa	–	1142.39	–
328.15 K, 10000 kPa	–	1144.38	–
328.15 K, 15000 kPa	–	1147.6	–
328.15 K, 20000 kPa	–	1150.78	–
328.15 K, 25000 kPa	–	1153.79	–
328.15 K, 30000 kPa	–	1156.77	–
328.15 K, 35000 kPa	–	1159.56	–
328.15 K, 40000 kPa	–	1162.34	–
328.15 K, 45000 kPa	–	1165.07	–
328.15 K, 50000 kPa	–	1167.69	–
328.15 K, 55000 kPa	–	1170.28	–
328.15 K, 60000 kPa	–	1172.79	–
328.15 K, 65000 kPa	–	1175.21	–
330.65 K, 101 kPa	1.24e-06	1135.21	1358.1
333.15 K, 100 kPa	–	1132.76	–
333.15 K, 101 kPa	1.2e-06	1132.81	1349.5
333.15 K, 2000 kPa	–	1134.24	–
333.15 K, 5000 kPa	–	1136.33	–
333.15 K, 7000 kPa	–	1137.7	–
333.15 K, 10000 kPa	–	1139.72	–
333.15 K, 15000 kPa	–	1143.11	–
333.15 K, 20000 kPa	–	1146.25	–
333.15 K, 25000 kPa	–	1149.39	–
333.15 K, 30000 kPa	–	1152.35	–
333.15 K, 35000 kPa	–	1155.23	–
333.15 K, 40000 kPa	–	1158.08	–
333.15 K, 45000 kPa	–	1160.83	–
333.15 K, 50000 kPa	–	1163.52	–
333.15 K, 55000 kPa	–	1166.14	–
333.15 K, 60000 kPa	–	1168.68	–
333.15 K, 65000 kPa	–	1171.17	–
335.65 K, 101 kPa	1.16e-06	1130.41	1340.8
338.15 K, 100 kPa	–	1127.97	–
338.15 K, 101 kPa	1.12e-06	1128.01	1332.2
338.15 K, 2000 kPa	–	1129.47	–
338.15 K, 5000 kPa	–	1131.61	–
338.15 K, 7000 kPa	–	1133.01	–
338.15 K, 10000 kPa	–	1135.08	–
338.15 K, 15000 kPa	–	1138.55	–
338.15 K, 20000 kPa	–	1141.78	–
338.15 K, 25000 kPa	–	1144.86	–
338.15 K, 30000 kPa	–	1147.94	–
338.15 K, 35000 kPa	–	1150.94	–
338.15 K, 40000 kPa	–	1153.82	–
338.15 K, 45000 kPa	–	1156.64	–
338.15 K, 50000 kPa	–	1159.38	–
338.15 K, 55000 kPa	–	1162.04	–
338.15 K, 60000 kPa	–	1164.64	–
338.15 K, 65000 kPa	–	1167.11	–

Settings	surface tension liquid-gas [mN/m]	vapor or sublimation pressure [kPa]
315.65 K	41.14	–
318.15 K	40.87	–
320.65 K	40.58	–
323.15 K	40.27	–
325.65 K	39.97	–
328.15 K	39.7	–
330.65 K	39.43	–
333.15 K	39.12	–
335.65 K	38.88	–
336.16 K	–	0.305
338.15 K	38.58	–
340.77 K	–	0.4
342.94 K	–	0.45
345.74 K	–	0.54
350.41 K	–	0.69
356.58 K	–	0.955
362.84 K	–	1.295
365.84 K	–	1.545
371.37 K	–	2.02
376.26 K	–	2.52
383.49 K	–	3.53
389.55 K	–	4.545
394.16 K	–	5.5
400.53 K	–	7.065
407.19 K	–	9.015
412.74 K	–	11.05
417.12 K	–	13.02
421.69 K	–	15.2
423.25 K	–	15.99
426.08 K	–	17.63
429.93 K	–	20.05
433.16 K	–	22.2
435.59 K	–	24.04
438.37 K	–	26.19
440.66 K	–	28.12
442.49 K	–	29.8
445.02 K	–	32.16
